Assay results from patent USRE32347E, “Hypocalcaemic peptides and process for their manufacture” (Ciba-Geigy Corp., priority 1984, dated 1987).
Ends that are not written are not given here.

Key:
[1] = system: calcium level of the blood; test: calcium level of the blood in patients with increased bone turn over; type: in vivo, human; settings: intravenous, intramuscular or subcutaneous injection of 0.01 to 5 mg, e.g. in 0.1 molar acetate buffer of pH 4.6
blood calcium level = test: rat test described by Kumar et al, J. Endocrinology 33, page 470 [1965] (MRC units); type: in vivo; settings: for result in the rat test according to Kumar et al., in words: compared with HT-C2 / parent peptide
Description: It lowers the plasma calcium level and plasma phosphate level of the blood of mammals, as can be shown by tests on rats weighing 50 to 150 g. […] It may therefore be used for the treatment of hypercalcaemiae and of bone diseases such as Paget's disease or osteoporosis.

In the case of Human calcitonin, the “calcium level of the blood” value [1] was “lowers”.
“HT-C11: active component of human calcitonin from fractions with K=4.0 (CGNLSTCMLGTYTQDFNKFHTFPQTAIGVGAP; ends and bridges not checked; cysteine pairing not given here; UniProt P01258 85-116, looked up)” was tested, and the activity (blood calcium level; in the rat, per mg of peptide) was 100-200 MRC units per mg.
With “HT-C1: the dimer of HT-C2; active component of human calcitonin (CGNLSTCMLGTYTQDFNKFHTFPQTAIGVGAP; ends and bridges not checked; also: dimer; UniProt P01258 85-116, looked up)” the “result in the rat test according to Kumar et al., in words” value (blood calcium level) was “about as good results as the product obtained in Example 1 (HT-C2)”.
With “HT-C1 sulfoxide: sulfoxide obtained from HT-C1 with 5% hydrogenperoxide (CGNLSTCMLGTYTQDFNKFHTFPQTAIGVGAP; ends and bridges not checked; also: dimer (HT-C1, dimer of HT-C2); UniProt P01258 85-116, looked up)” the “result in the rat test according to Kumar et al., in words” value (blood calcium level) was “equally active”.
